# From patent US11078228B2, “Ectonucleotidase inhibitors and methods of use thereof” (Calithera Biosciences, Inc., priority 2018, dated 2021)
# Biological target: recombinant CD73 (Homo sapiens (Human), UniProt P21589)
# Assay: Assay 2: Inhibition of the CD73 enzyme in vitro (0.05 nM CD73, 1 hour 37° C., Malachite Green)
# Format: biochemical
# Conditions: 0.05 nM CD73, 50 μM AMP, 1 hour at 37° C.
# In short: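 Soluble recombinant CD73 reactions ran 1 hour at 37° C. Malachite Green was then added, and absorbance at 630 nm was read after 5 min at room temperature. Inorganic phosphate was quantified from a phosphate standard curve.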
# Sequence of recombinant CD73 (P21589 27-547): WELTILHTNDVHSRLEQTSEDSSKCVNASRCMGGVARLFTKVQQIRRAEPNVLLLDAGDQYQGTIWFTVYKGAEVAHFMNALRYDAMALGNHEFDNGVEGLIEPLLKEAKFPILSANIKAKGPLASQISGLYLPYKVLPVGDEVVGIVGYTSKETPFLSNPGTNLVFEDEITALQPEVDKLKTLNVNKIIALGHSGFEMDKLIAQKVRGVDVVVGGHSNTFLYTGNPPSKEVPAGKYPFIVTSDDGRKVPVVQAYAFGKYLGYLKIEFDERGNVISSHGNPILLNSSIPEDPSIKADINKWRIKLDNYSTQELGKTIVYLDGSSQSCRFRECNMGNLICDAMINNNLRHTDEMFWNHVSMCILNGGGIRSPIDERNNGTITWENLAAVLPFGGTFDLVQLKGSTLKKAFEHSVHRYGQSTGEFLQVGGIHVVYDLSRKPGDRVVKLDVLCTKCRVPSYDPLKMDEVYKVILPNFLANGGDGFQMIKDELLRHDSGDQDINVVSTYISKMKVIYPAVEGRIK
row,IC50,Structure (SMILES)
1,0.16 nM,"C#C[C@@]1(O)[C@@H](COC(Cc2ccc(N3CCCN(C)C3=O)cc2)(C(=O)O)C(=O)O)O[C@@H](n2cnc3c(NCC4CC4)nc(Cl)nc32)[C@@H]1O [Example 150, 2-(((2R,3S,4R,5R)-5-(2-chloro-6-((cyclopropylmethyl)amino)-9H-purin-9-yl)-3-ethynyl-3,4-dihydroxytetrahydrofuran-2-yl)methoxy)-2-(4-(3-methyl-2-oxotetrahydropyrimidin-1 (2H)-yl)benzyl)malonic acid]"
2,0.25 nM,"C#C[C@@]1(O)[C@@H](COC(Cc2ccc(N3CCCN(C)C3=O)cc2)(C(=O)O)C(=O)O)O[C@@H](n2cnc3c(NC(C)C)nc(Cl)nc32)[C@@H]1O [Example 151, 2-(((2R,3S,4R,5R)-5-(2-chloro-6-(isopropylamino)-9H-purin-9-yl)-3-ethynyl-3,4-dihydroxytetrahydrofuran-2-yl)methoxy)-2-(4-(3-methyl-2-oxotetrahydropyrimidin-1(2H)-yl)benzyl)malonic acid]"
3,0.05 nM,"C#C[C@@]1(O)[C@@H](COC(Cc2ccc(N3CCCN(CCC)C3=O)cc2)(C(=O)O)C(=O)O)O[C@@H](n2cnc3c(N)nc(Cl)nc32)[C@@H]1O [Example 152, 2-(((2R,3S,4R,5R)-5-(6-amino-2-chloro-9H-purin-9-yl)-3-ethynyl-3,4-dihydroxytetrahydrofuran-2-yl)methoxy)-2-(4-(2-oxo-3-propyltetrahydropyrimidin-1 (2H)-yl)benzyl)malonic acid]"
4,0.48 nM,"C#C[C@@]1(O)[C@@H](COC(Cc2ccc(-c3cccn(CCO)c3=O)cc2)(C(=O)O)C(=O)O)O[C@@H](n2cnc3c(NC(C)C)nc(Cl)nc32)[C@@H]1O [Example 153, 2-(((2R,3S,4R,5R)-5-(2-chloro-6-(isopropylamino)-9H-purin-9-yl)-3-ethynyl-3,4-dihydroxytetrahydrofuran-2-yl)methoxy)-2-(4-(1-(2-hydroxyethyl)-2-oxo-1,2-dihydropyridin-3-yl)benzyl)malonic acid]"
5,2 nM,"C#C[C@@]1(O)[C@@H](COC(Cc2ccc(N3CCN(C)CC3=O)cc2)(C(=O)O)C(=O)O)O[C@@H](n2cnc3c(N)nc(Cl)nc32)[C@@H]1O [Example 154, 2-(((2R,3S,4R,5R)-5-(6-amino-2-chloro-9H-purin-9-yl)-3-ethynyl-3,4-dihydroxytetrahydrofuran-2-yl)methoxy)-2-(4-(4-methyl-2-oxopiperazin-1-yl)benzyl)malonic acid]"
6,2 nM,"C#C[C@@]1(O)[C@@H](COC(Cc2ccc(NCCN(C)CC(=O)O)cc2)(C(=O)O)C(=O)O)O[C@@H](n2cnc3c(N)nc(Cl)nc32)[C@@H]1O [Example 155, 2-(((2R,3S,4R,5R)-5-(6-amino-2-chloro-9H-purin-9-yl)-3-ethynyl-3,4-dihydroxytetrahydrofuran-2-yl)methoxy)-2-(4-((2-((carboxymethyl)(methyl)amino)ethyl)amino)benzyl)malonic acid]"
7,0.14 nM,"C#C[C@@]1(O)[C@@H](COC(Cc2ccc(N3CCCNC3=O)cc2)(C(=O)O)C(=O)O)O[C@@H](n2cnc3c(NCc4ccc(OC)cc4OC)cc(Cl)nc32)[C@@H]1O [Example 156, 2-(((2R,3S,4R,5R)-5-(5-chloro-7-((2,4-dimethoxybenzyl)amino)-3H-imidazo[4,5-b]pyridin-3-yl)-3-ethynyl-3,4-dihydroxytetrahydrofuran-2-yl)methoxy)-2-(4-(2-oxotetrahydropyrimidin-1 (2H)-yl)benzyl)malonic acid]"
8,0.37 nM,"C#C[C@@]1(O)[C@@H](COC(Cc2ccc(N3CCCNC3=O)cc2)(C(=O)O)C(=O)O)O[C@@H](n2cnc3c(N)cc(Cl)nc32)[C@@H]1O [Example 157, 2-(((2R,3S,4R,5R)-5-(7-amino-5-chloro-3H-imidazo[4,5-b]pyridin-3-yl)-3-ethynyl-3,4-dihydroxytetrahydrofuran-2-yl)methoxy)-2-(4-(2-oxotetrahydropyrimidin-1(2H)-yl)benzyl)malonic acid]"
9,8 nM,"C#C[C@@]1(O)[C@@H](COC(Cc2ccn[nH]2)(C(=O)O)C(=O)O)O[C@@H](n2cnc3c(N)nc(Cl)nc32)[C@@H]1O [Example 158, 2-((1H-pyrazol-5-yl)methyl)-2-(((2R,3S,4R,5R)-5-(6-amino-2-chloro-9H-purin-9-yl)-3-ethynyl-3,4-dihydroxytetrahydrofuran-2-yl)methoxy)malonic acid]"
10,476 nM,"C#C[C@@]1(O)[C@@H](COC(Cc2ccccc2)(C(=O)O)C(=O)O)O[C@@H](n2cnc3c(-c4cnn(S(=O)(=O)c5ccc(C)cc5)c4)nc(Cl)nc32)[C@@H]1O [Example 159, 2-benzyl-2-(((2R,3S,4R,5R)-5-(2-chloro-6-(1-tosyl-1H-pyrazol-4-yl)-9H-purin-9-yl)-3-ethynyl-3,4-dihydroxytetrahydrofuran-2-yl)methoxy)malonic acid]"
11,0.31 nM,"C#C[C@@]1(O)[C@@H](COC(Cc2ccc(-c3cccn(CCC)c3=O)cc2)(C(=O)O)C(=O)O)O[C@@H](n2cnc3c(NC)nc(Cl)nc32)[C@@H]1O [Example 160, 2-(((2R,3S,4R,5R)-5-(2-chloro-6-(methylamino)-9H-purin-9-yl)-3-ethynyl-3,4-dihydroxytetrahydrofuran-2-yl)methoxy)-2-(4-(2-oxo-1-propy-1,2-dihydropyridin-3-yl)benzyl)malonic acid]"
12,561 nM,"C#C[C@@]1(O)[C@@H](COC(Cc2ccccc2)(C(=O)O)C(=O)O)O[C@@H](n2cnc3c(N)nc(C(C)O)nc32)[C@@H]1O (stereo partly drawn) [Example 161, 2-(((2R,3S,4R,5R)-5-(6-amino-2-(1-hydroxyethyl)-9H-purin-9-yl)-3-ethynyl-3,4-dihydroxytetrahydrofuran-2-yl)methoxy)-2-benzylmalonic acid]"
13,0.42 nM,"C#C[C@@]1(O)[C@@H](COC(Cc2ccc(-c3cccn(C)c3=O)cc2)(C(=O)O)C(=O)O)O[C@@H](n2cnc3c(N)nc(Cl)nc32)[C@@H]1O [Example 162, 2-(((2R,3S,4R,5R)-5-(6-amino-2-chloro-9H-purin-9-yl)-3-ethynyl-3,4-dihydroxytetrahydrofuran-2-yl)methoxy)-2-(4-(1-methyl-2-oxo-1,2-dihydropyridin-3-yl)benzyl)malonic acid]"
14,> 100 nM,"C#C[C@@]1(O)[C@@H](COC(Cc2ccccc2)(C(=O)O)C(=O)O)O[C@@H](n2cnc3c(CCCC(=O)O)nc(Cl)nc32)[C@@H]1O [Example 163, 2-benzyl-2-(((2R,3S,4R,5R)-5-(6-(3-carboxypropyl)-2-chloro-9H-purin-9-yl)-3-ethynyl-3,4-dihydroxytetrahydrofuran-2-yl)methoxy)malonic acid]"
15,14 nM,"C#C[C@@]1(O)[C@@H](COC(Cc2ccccc2)(C(=O)O)C(=O)O)O[C@@H](n2cnc3c(NO)nc(Cl)nc32)[C@@H]1O [Example 168, 2-benzyl-2-(((2R,3S,4R,5R)-5-(2-chloro-6-(hydroxyamino)-9H-purin-9-yl)-3-ethynyl-3,4-dihydroxytetrahydrofuran-2-yl)methoxy)malonic acid]"
16,162 nM,"C#C[C@@]1(O)[C@@H](COC(Cc2ccsc2)(C(=O)O)c2cscn2)O[C@@H](n2cnc3c(NC(C)C)nc(Cl)nc32)[C@@H]1O (stereo partly drawn) [Example 169, 2-(((2R,3S,4R,5R)-5-(2-chloro-6-(isopropylamino)-9H-purin-9-yl)-3-ethynyl-3,4-dihydroxytetrahydrofuran-2-yl)methoxy)-2-(thiazol-4-yl)-3-(thiophen-3-yl)propanoic acid]"
